Laboratory results reported in ChEMBL document CHEMBL1137809, “Antifungal activity of benzoic acid derivatives from Piper lanceaefolium” (2002).
Values after ≈ are worked out from the molar mass of the structure shown. Active and inactive are the calls of the source. No cut-off for these calls is given here.

What was measured:
Candida albicans = test: Antifungal activity against Candida albicans after 24 hrs by broth dilution assay; type: functional
Cladosporium cucumerinum = test: Antifungal activity against Cladosporium cucumerinum at 5 ug by bioautographic TLC test; type: functional, organism-based

| Compound | Activity (Candida albicans) | MIC (Candida albicans) | Activity (Cladosporium cucumerinum) |
| --- | --- | --- | --- |
| CC1(C)CC(=O)c2cc(C(=O)O)cc(O)c2O1 | inactive | – | – |
| CC(C)=CC(=O)c1cc(C(=O)O)cc(O)c1O | inactive | – | – |
| COC(=O)c1cc(O)c(O)c(C(=O)C=C(C)C)c1 [LANCEAEFOLIC ACID METHYL ESTER] | – | 100 µg/mL (≈ 400 µM) | – |
| CC(C)=CC(=O)c1cc(C(=O)O)ccc1O | inactive | – | inactive |
| COC(=O)c1cc(O)c2c(c1)C(=O)CC(C)(C)O2 | inactive | – | – |
